One may read the IC50 as the concentration that inhibits the measured activity by half.

Experiment [1] deals with A549. Kind of experiment: Cytotoxicity against human A549 cells assessed as reduction in cell viability measured after 72 hrs by CCK8 assay. Particulars: A549, 72 h. Format: cell-based. A general note: Tetrazolium dyes change colour on reduction, which living cells bring about.
Experiment [2] has as its system NCI-H460. Kind of experiment: Chemo-sensitizing activity against mitoxantrone-selected ABCG2-overexpressing human NCI-H460/MX20 cells assessed as reversal fold at 1 uM measured after 72 hrs in presence of mitoxantrone by CCK8 assay relative to control. Format: functional.
Experiment [3] concerns HEK293. Kind of experiment: Chemo-sensitizing activity against human HEK293 cells assessed as reversal fold at 1 uM measured after 72 hrs in presence of topotecan by CCK8 assay relative to control. Format: functional.
The test system of experiment [4] is OVCAR-8. Kind of experiment: Chemo-sensitizing activity against human OVCAR-8 cells assessed as reversal fold at 1 uM measured after 72 hrs in presence of paclitaxel by CCK8 assay relative to control. Format: functional.
The test system of experiment [5] is NCI/ADR-RES. Kind of experiment: Chemo-sensitizing activity against ABCB1-overexpressing human NCI/ADR-RES cells assessed as reversal fold at 5 uM measured after 72 hrs in presence of colchicine by CCK8 assay relative to control. In kind it is functional.
The subject of experiment [6] is KB 3-1. Briefly: Chemo-sensitizing activity against human KB 3-1 cells assessed as reversal fold at 1 uM measured after 72 hrs in presence of vincristine by CCK8 assay relative to control. In kind it is functional.
The subject of experiment [7] is KB-V1. Kind of experiment: Chemo-sensitizing activity against ABCB1-overexpressing human KB-V1 cells assessed as reversal fold at 2 uM measured after 72 hrs in presence of vincristine by CCK8 assay relative to control. In kind it is functional.
For experiment [8], the system named is KB 3-1. Kind of experiment: Chemo-sensitizing activity against human KB 3-1 cells assessed as reversal fold at 1 uM measured after 72 hrs in presence of paclitaxel by CCK8 assay relative to control. In kind it is functional.
For experiment [9], the system named is KB 3-1. Kind of experiment: Chemo-sensitizing activity against human KB 3-1 cells assessed as reversal fold at 2 uM measured after 72 hrs in presence of paclitaxel by CCK8 assay relative to control. In kind it is functional.
The subject of experiment [10] is KB-V1. Briefly: Chemo-sensitizing activity against ABCB1-overexpressing human KB-V1 cells assessed as reversal fold at 1 uM measured after 72 hrs in presence of paclitaxel by CCK8 assay relative to control. In kind it is functional.
The subject of experiment [11] is KB-V1. Kind of experiment: Chemo-sensitizing activity against ABCB1-oveexpressing human KB-V1 cells assessed as reversal fold at 1 uM measured after 72 hrs in presence of colchicine by CCK8 assay relative to control. In kind it is functional.
For experiment [12], the system named is HEK293. Briefly: Chemo-sensitizing activity against human HEK293 cells assessed as reversal fold at 2 uM measured after 72 hrs in presence of vincristine by CCK8 assay relative to control. In kind it is functional.
Experiment [13] relates to HEK293. Kind of experiment: Chemo-sensitizing activity against human HEK293 cells assessed as reversal fold at 1 uM measured after 72 hrs in presence of paclitaxel by CCK8 assay relative to control. In kind it is functional.
The test system of experiment [14] is HEK293. Kind of experiment: Chemo-sensitizing activity against ABCB1-overexpressing human HEK293/MDR19 cells assessed as reversal fold at 2 uM measured after 72 hrs in presence of paclitaxel by CCK8 assay relative to control. Format: functional.
In experiment [15] the test system is HEK293. Briefly: Chemo-sensitizing activity against human HEK293 cells assessed as reversal fold at 1 uM measured after 72 hrs in presence of colchicine by CCK8 assay relative to control. In kind it is functional.

Regarding `C=C(C)[C@H](CC=C(C)C)Cc1c(O)cc(O)c2c1O[C@H](c1ccc(O)cc1O)CC2=O` [SOPHORAFLAVANONE G], the IC50 in [1] was found to be 26.2 µM. Moreover, the “fold change (FC)” value in experiment [2] worked out at 1.9; in experiment [3], 0.9; in [4] it was 0.8; in [5] it was 0.7; in experiment [6], 1.1; in experiment [7] it was 1.1. Further, the “fold change (FC)” value in experiment [8] is listed as 0.9; in experiment [9], 1.1; in experiment [10], 0.9; in experiment [11], 0.9; in [12], 0.6; in [13], 1.1. Besides, the “fold change (FC)” value in experiment [14] came to 1.2; in experiment [15], 1.

(Values after ChEMBL document CHEMBL5055643, “Sophoraflavanone G Resensitizes ABCG2-Overexpressing Multidrug-Resistant Non-Small-Cell Lung Cancer Cells to Chemotherapeutic Drugs” (J Nat Prod, 2021).)
